The text below walks through data of patent US5593970A, “Heterocyclic anthracycline analogs” (priority 1994, dated 1997).

Where two headings read alike, the source gives them in different places.

For data set [1], the system named is SC Lung. Nature of the data set: NCI assay, average per cancer type. The note with it: Homo sapiens; for CC50: 48 h, read-out: Average LOG10 LC50; for GI50: read-out: Average LOG10 GI50.
For data set [2], the system named is SKOV3. Nature of the data set: Microculture tetrazolium assay. The data set is classed as cell-based. The note with it: Homo sapiens, SK-OV-3, SKOV3; read-out: IC50.
Data set [3] concerns SKVLB. Nature of the data set: Microculture tetrazolium assay. The data set is classed as cell-based. The conditions noted are these: for VLB/OV3: IC50 ratio SKVLB/SKOV3; for IC50: SKVLB, read-out: IC50.
Data set [4] concerns Ovarian. Nature of the data set: NCI assay, average per cancer type. The conditions noted are these: Homo sapiens; for CC50: 48 h, read-out: Average LOG10 LC50; for GI50: read-out: Average LOG10 GI50.
Data set [5] concerns CNS. Nature of the data set: NCI assay, average per cancer type. The note with it: Homo sapiens; for CC50: 48 h, read-out: Average LOG10 LC50; for GI50: read-out: Average LOG10 GI50.
In data set [6] the test system is solid tumors. Nature of the data set: NCI assay, mean potency in solid tumors. The note with it: Homo sapiens; for GI50: read-out: Average LOG10 GI50, Mean Potency in solid tumors; for CC50: 48 h, read-out: Average LOG10 LC50, Mean Potency in solid tumors.
The test system of data set [7] is Colon. Nature of the data set: NCI assay, average per cancer type. The conditions noted are these: Homo sapiens; for CC50: 48 h, read-out: Average LOG10 LC50; for GI50: read-out: Average LOG10 GI50.
In data set [8] the test system is NSC Lung. Nature of the data set: NCI assay, average per cancer type. The conditions noted are these: Homo sapiens; for CC50: 48 h, read-out: Average LOG10 LC50; for GI50: read-out: Average LOG10 GI50.
Data set [9] has as its system Melanoma. Nature of the data set: NCI assay, average per cancer type. The conditions noted are these: Homo sapiens; for CC50: read-out: Average LOG10 LC50; for GI50: read-out: Average LOG10 GI50.
Data set [10] deals with Renal. Nature of the data set: NCI assay, average per cancer type. The conditions noted are these: Homo sapiens; for CC50: 48 h, read-out: Average LOG10 LC50; for GI50: read-out: Average LOG10 GI50.
Data set [11] has as its system Leukemia. Nature of the data set: NCI assay, average per cancer type. The note with it: for CC50: 48 h, read-out: Average LOG10 LC50; for GI50: read-out: Average LOG10 GI50.
The subject of data set [12] is tumor cell lines. Nature of the data set: NCI sulforhodamine B assay, all cell lines. The note with it: for CC50 / IC100 / GI50: Homo sapiens; for CC50 / IC100: 48 h; for CC50: read-out: Log10 LC50, Mean / MG-MID, all cell lines (converted); for IC100: read-out: Log10 TGI, Mean / MG-MID, all cell lines; for GI50: read-out: Log10 GI50, Mean / MG-MID, all cell lines (converted).

The test system of data set [13] is LOX. Nature of the data set: Microculture tetrazolium assay. The data set is classed as cell-based.
Data set [14] has as its system HT29. Nature of the data set: Microculture tetrazolium assay. The note with it: Homo sapiens, HT-29, HT29; read-out: IC50. Type of data set: cell-based.
Data set [15] relates to T47D. Nature of the data set: Microculture tetrazolium assay. The data set is classed as cell-based. The conditions noted are these: Homo sapiens, read-out: IC50.

`CCOC(=O)C1CC2=C(C(=O)c3c(c(O)c4ccccc4c3OC)C2=O)C(O[C@H]2C[C@H](NC(=O)C(F)(F)F)[C@H](O)[C@H](C)O2)O1` (mixture of isomers) [BCH-689, (1'S,1R,3S) and (1'S,1S,3R) Ethyl (6-hydroxy-11-methoxy-5,12-dioxo-1-(3,-trifluoroacetamido-1-daunosaminyl)-3,4,5,12-tetrahydroanthraceno[2,3-c]pyran-3-yl)formate]: the CC50 was 42.7 µM in data set [1]; 42.7 µM in data set [4]; 40.7 µM in data set [5]; 38.9 µM in [7]; 41.7 µM in [8]; 41.7 µM in data set [9] (48 h). For the same molecule, the figures for the CC50 in [10], in data set [11] and in [12] were 37.2 µM, less than 100 µM and 45.7 µM, respectively. In addition, the GI50 in [1] was 11.5 µM; in data set [4] it was 11.5 µM; in data set [5] it was 12.9 µM; in data set [6] it was 12 µM; in data set [7], 11.2 µM; in data set [8] it was 13.5 µM. Besides, the GI50 in data set [9] is 12.6 µM; in data set [10], 11.2 µM; in data set [11] it was 15.5 µM; in [12], 12.6 µM. Besides, the IC50 turned out to be 3.79 µM in data set [2] and 4.02 µM in data set [3]. Moreover, in data set [3], the VLB/OV3 is on record as 1.06. Besides, in [12], the IC100 is 26.3 µM.

Regarding `CCOC(=O)[C@@H]1CC2=C(C(=O)c3c(cc4ccccc4c3OC(C)=O)C2=O)[C@@H](O)O1` (relative stereo) [BCH-657, Ethyl[1-hydroxy-11-acetoxy-5,12-dioxo-3,4-5,12-tetrahydroanthraceno(2,3-C)pyran-3-yl]formate], the CC50 was greater than 100 µM in data set [1]; 17.4 µM in data set [4]; 13.2 µM in [5]; 13.5 µM in data set [7]; 11.5 µM in [8]; 12 µM in data set [10]. The CC50 in [11] is greater than 100 µM; in [12], 26.3 µM. The GI50 was 1.26 µM in [1]; 1.7 µM in [4]; 1.86 µM in data set [5]; 1.29 µM in [6]; 0.794 µM in [7]; 1.12 µM in data set [8]. Besides, the GI50 in data set [9] is 1.35 µM; in data set [10] it was 1.32 µM; in data set [11], 0.437 µM; in data set [12], 1.17 µM. In addition, the IC50 in [2] worked out at 6.8 µM; in data set [3], 6.75 µM; in [13] it was 9.3 µM; in [14] it was 2.28 µM; in [15], 13.1 µM. In addition, the VLB/OV3 in data set [3] stood at 0.99. Further, in data set [12], the “antiproliferative and cytotoxic activity in words” value was “strong antiproliferative (GI50) and potent cytotoxic (LC50) activities”. Besides, the IC100 in [12] is 4.07 µM.

Take `CCOC(=O)C1Cc2c(O)c3c(c(O)c2CO1)C(=O)c1ccccc1C3=O` (stereo not drawn) [BCH-650]: the CC50 in [1], in data set [4], in data set [5], in [6], in [7] and in data set [8] was greater than 100 µM each time. In addition, the CC50 in [9] (48 h) was greater than 100 µM; in [10], greater than 100 µM; in [11] it was greater than 100 µM; in [12], 100 µM. Besides, the GI50 in data set [1] is greater than 100 µM; in [4], greater than 100 µM; in data set [5], 45.7 µM; in [6], 52.5 µM; in data set [7], greater than 100 µM; in data set [8] it was greater than 100 µM. For the same molecule, the GI50 in [9] (48 h) was greater than 100 µM; in data set [10], 52.5 µM; in data set [11], 61.7 µM; in data set [12] it was 79.4 µM. Also, the IC50 in data set [2] turned out to be 100 µM; in data set [3], 100 µM; in data set [13] (read-out: IC50) it was 100 µM; in data set [14], 91.1 µM; in data set [15] it was 100 µM. For the same molecule, the IC100 in [12] was 100 µM.

With `COC(=O)[C@H]1CC2=C(C(=O)c3cc4ccccc4cc3C2=O)[C@H](O[C@H]2C[C@H](NC(=O)C(F)(F)F)[C@H](O)[C@H](C)O2)O1` [BCH-670], the CC50 in data set [1] is 38.9 µM; in data set [4], 39.8 µM; in data set [5], 26.3 µM; in data set [6], 26.9 µM; in data set [7], 25.1 µM; in data set [8] it was 24 µM. In addition, the CC50 is 20.4 µM in data set [9] (48 h), 29.5 µM in data set [10], greater than 100 µM in data set [11] and 29.5 µM in [12]. Also, the GI50 in [1] was 3.31 µM; in data set [4] it was 3.8 µM; in data set [5], 3.63 µM; in data set [6] it was 3.02 µM; in [7], 2.04 µM; in [8], 3.09 µM. Further, the GI50 was 1.78 µM in data set [9], 4.37 µM in data set [10], 1.66 µM in [11] and 2.75 µM in [12]. For the same molecule, in [12], the IC100 is 8.32 µM.

In the case of `COC(=O)[C@@H]1CC2=C(C(=O)c3cc4ccccc4cc3C2=O)[C@H](O[C@H]2C[C@H](NC(=O)C(F)(F)F)[C@H](O)[C@H](C)O2)O1` [BCH-672], the CC50 was 39.8 µM in data set [1]; 25.7 µM in data set [4]; 31.6 µM in [5]; 27.5 µM in [6]; 28.2 µM in data set [7]; 27.5 µM in data set [8]. In addition, the CC50 in [9] (48 h) was 21.4 µM; in data set [10] it was 24 µM; in [11], 42.7 µM; in data set [12], 26.9 µM. The GI50 in data set [1] was 2.04 µM; in data set [4], 3.16 µM; in [5], 4.68 µM; in data set [6], 2.75 µM; in [7], 1.66 µM; in data set [8], 3.55 µM. Also, the GI50 in data set [9] is 1.55 µM; in data set [10], 4.17 µM; in data set [11] it was 1.29 µM; in data set [12], 2.63 µM. Also, the IC100 in data set [12] was 7.94 µM.

As to `CCOC(=O)[C@@H]1CC2=C(C(=O)c3c(cc4ccccc4c3O)C2=O)[C@@H](O[C@H]2C[C@H](NC(=O)C(F)(F)F)[C@H](O)[C@H](C)O2)O1` [BCH-673], the CC50 was 36.3 µM in [1]; 21.9 µM in [4]; 26.9 µM in [5]; 21.9 µM in data set [6]; 34.7 µM in data set [7]; 21.9 µM in [8]. In addition, the CC50 was 13.5 µM in [9] (48 h), 11 µM in [10], greater than 100 µM in [11] and 20.9 µM in data set [12]. The GI50 in data set [1] is 1.82 µM; in data set [4] it was 1.55 µM; in data set [5], 2.24 µM; in data set [6], 1.55 µM; in [7], 0.794 µM; in data set [8], 1.74 µM. For the same molecule, the GI50 in data set [9] is 1.48 µM; in [10], 1.58 µM; in [11], 1.07 µM; in data set [12] it was 1.48 µM. Also, the IC100 in [12] is 4.47 µM.

As for `COC(=O)[C@@H]1CC2=C(C(=O)c3cc4ccccc4c(O)c3C2=O)[C@@H](O[C@H]2C[C@H](NC(=O)C(F)(F)F)[C@H](O)[C@H](C)O2)O1` [BCH-683], the CC50 was 8.32 µM in data set [1]; 15.8 µM in data set [4]; 31.6 µM in data set [5]; 15.5 µM in data set [6]; 10.5 µM in [7]; 28.2 µM in data set [8]. For the same molecule, the CC50 in data set [9] (48 h) was 7.08 µM; in data set [10], 26.3 µM; in data set [11] it was less than 100 µM; in data set [12], 21.9 µM. Besides, the GI50 was 1.86 µM in [1]; 2.09 µM in data set [4]; 3.39 µM in data set [5]; 2.09 µM in data set [6]; 1.29 µM in data set [7]; 3.02 µM in data set [8]. In addition, the GI50 in data set [9] is 1.12 µM; in [10], 3.16 µM; in [11], 1.82 µM; in [12], 2.14 µM. For the same molecule, the IC100 in [12] is 5.75 µM.
